# Data taken from patent US8110592B2, “Agrochemical formulations that can be dispersed in water containing polyalkoxytriglycerides as penetration enhances” (priority 2006, dated 2012).
# Tested on: apple leaf cuticles
# Assay: Penetration of active compounds through enzymatically isolated apple leaf cuticles
# Format: in vitro ADME, apple trees of the Golden Delicious variety
# Text: Penetration* of spirotetramate with penetrants according to the invention compared to the control without penetrant and the rapid-action uptake enhancer Genapol® X150. All penetrants employed at 0.5 g/l.
# This test measured the penetration of active compounds through enzymatically isolated cuticles of apple leaves.
# The leaves used were cut in the fully developed state from apple trees of the Golden Delicious variety. The cuticles were isolated as follows: • first of all, leaf discs labelled on the underside with dye and formed by punching were filled by means of vacuum infiltration with a pectinase solution (0.2% to 2% strength) buffered to a pH of between 3 and 4, • then sodium azide was added and • the leaf discs thus treated were left to stand until the original leaf structure broke down and the non-cellular cuticles underwent detachment.
# Thereafter only those cuticles from the top leaf sides that were free from stomata and hairs were used further. They were washed a number of times in alternation with water and with a buffer solution, pH 7. The clean cuticles obtained were, finally, applied to Teflon plaques and smoothed and dried with a gentle jet of air.
# In the next step the cuticular membranes obtained in this way were placed in stainless steel diffusion cells (transport chambers) for the purpose of membrane transport investigations. For these investigations the cuticles were placed centrally using tweezers on the edges of the diffusion cells, which were coated with silicone grease, and sealed with a ring, which was likewise greased. The arrangement was chosen so that the morphological outer side of the cuticles was directed outwards, in other words to the air, while the original inner side was facing the interior of the diffusion cell.
# The diffusion cells were filled with a 1% phospholipid suspension. Penetration was determined by applying in each case 10 μl of the spray liquor of the composition below, containing radiolabeled active compound in the stated concentrations, to the outer face of the cuticles. The spray liquor is prepared using local tap water of average hardness.
# After the spray liquors had been applied, the water was evaporated and then the chambers were inverted and placed in thermostatted troughs, in which the temperature and air humidity over the cuticles was adjustable by means of a gentle air stream onto the cuticles with the spray coating (20° C., 60% rh). At regular intervals, an autosampler took aliquots which were subjected to measurement in a scintillation counter.
# Facilitation of the penetration of various active compounds* by penetrants according to the invention exemplified by Crovol® CR70G in comparison to the control.
# [1] = with 0.5 g/l Crovol CR70G, after 24 hours
# [2] = with 0.5 g/l Crovol CR70G, after 72 hours
# [3] = without Crovol CR70G, after 24 hours
# [4] = without Crovol CR70G, after 72 hours
# [5] = spirotetramate 0.2 g/l, control without additive
SMILES,"% penetration (after hours) (apple (Malus domestica), 24 h) [%]","% penetration (after hours) (apple (Malus domestica), 48 h) [%]","% penetration (after hours) (apple (Malus domestica), 6 h) [%]","% penetration (after hours) (apple (Malus domestica), 18 h) [%]",% penetration (after hours) [1] [%],% penetration (after hours) [2] [%],% penetration (after hours) [3] [%],% penetration (after hours) [4] [%],% penetration after 24 h [5] [%],% penetration after 3 days [5] [%]
"O=[N+]([O-])NC1=NCCN1Cc1ccc(Cl)nc1 [Imidacloprid, imidacloprid]",0.7,2.2,–,–,–,–,–,–,–,–
"CS(=O)(=O)c1ccc(C(=O)C2C(=O)CCCC2=O)c(Cl)c1COCC(F)(F)F [Tembotrione, tembotrione]",–,–,<1,<1,–,–,–,–,–,–
"CC(C)(C)C(O)(CCc1ccc(Cl)cc1)Cn1cncn1 (centres unmarked) [Tebuconazole, tebuconazole]",–,–,–,–,6.0,31.5,<2,<2,–,–
CCOC(=O)OC1=C(c2cc(C)ccc2C)C(=O)N[C@]12CC[C@@H](OC)CC2 [spirotetramate],–,–,–,–,5.8,40.5,0.1,0.3,0.1,0.3
